# In patent publication US20060062758A1, “Tight junction modulator peptide PN159 for enhanced mucosal delivery of therapeutic compounds” (Nastech Pharmaceutical Comapny Inc., priority 2004, published 2006):
# Non-standard residues stand in square brackets, D forms with d. No end group written: not given here.
# Experiments:
# [1] = tested on: EpiAirway™ Cell Membrane (mucosal epithelial cell layer); experiment: Transepithelial electrical resistance (TER), EpiAirway in vitro epithelial tissue model; type: cell-based; conditions: for Relative TER Decrease: Table 8, amino acid substitutions; for Relative TER Decrease / TER(x)/TER(159) +/− SEM* / TER(x)/TER(159) +/− SEM: relative to PN159; for TER(x)/TER(159) +/− SEM*: mean values from multiple repeats; for TER(x)/TER(159) +/− SEM: Table 6, D-amino acid substitutions
# Excerpt: One “kit” consists of 24 units.
# A. Respiratory airway epithelial cells form tight junctions in vivo as well as in vitro, and thereby restrict the flow of solutes across the tissue. These junctions confer a transepithelial resistance of several hundred ohms×cm^2 in excised airway tissues. In the MatTek EpiAirway™ units, the transepithelial electrical resistance (TER) is reported by the manufacturer to be routinely around 1000 ohms×cm^2. […] The porous membrane-bottomed units without cells, conversely, provide only minimal transmembrane resistance (approximately 5-20 ohms×cm^2).
# B. Accurate determinations of TER require that the electrodes of the ohmmeter be positioned over a significant surface area above and below the membrane, and that the distance of the electrodes from the membrane be reproducibly controlled. The method for TER determination recommended by MatTek and employed for all experiments herein employs an “EVOM”™ epithelial voltohmmeter and an “ENDOHM”™ tissue resistance measurement chamber from World Precision Instruments, Inc., Sarasota, Fla.
# D. Determinations of TER are made with 1.5 mL of PBS in the chamber and 350 μL of PBS in the membrane-bottomed unit being measured. The top electrode is adjusted to a position just above the membrane of a unit containing no cells (but containing 350 μL of PBS) and then fixed to ensure reproducible positioning. The resistance of a cell-free unit is typically 5-20 ohms×cm^2 (“background resistance”).
# G. The unit is gently blotted free of excess PBS on its exterior surface only before being placed into the chamber (containing a fresh 1.5 mL aliquot of PBS). An aliquot of 350 μL PBS is added to the unit before the top electrode is placed on the chamber and the TER is read on the EVOM meter.
# I. The units are read in the following sequence: all sham-treated controls, followed by all formulation-treated samples, followed by a second TER reading of each of the sham-treated controls. All TER values are reported as a function of the surface area of the tissue.
# TER was calculated as: TER=(R1−Rb)×A Where R1 is resistance of the insert with a membrane, Rb is the resistance of the blank insert, and A is the area of the membrane (0.6 cm^2). The effect of pharmaceutical formulations comprising intranasal delivery-enhancing agents, for example, permeabilizing peptides as measured by TER across the EpiAirway™ Cell Membrane (mucosal epithelial cell layer). Permeabilizing peptides are applied to the EpiAirway™ Cell Membrane at a concentration of 1.0 mM. A decrease in TER value relative to the control value (control=approximately 1000 ohms-cm^2; normalized to 100.) indicates a decrease in cell membrane resistance and an increase in mucosal epithelial cell permeability.
# The formulation pH was fixed at 4.5.
# [2] = tested on: EpiAirway™ Cell Membrane (mucosal epithelial cell layer); experiment: Permeation kinetics across the in vitro epithelial tissue model; conditions: for Perm(x)/Perm(159) +/− SEM* / Perm(x)/Perm(159) +/− SEM: relative to PN159; for Perm(x)/Perm(159) +/− SEM*: mean values from multiple repeats; for permeability enhancement (in words): PN159 analogues compared with PN159; for Perm(x)/Perm(159) +/− SEM: Table 6, D-amino acid substitutions
# Method: The EpiAirway™ system was developed by MatTek Corp (Ashland, Mass.) as a model of the pseudostratified epithelium lining the respiratory tract. The epithelial cells are grown on porous membrane-bottomed cell culture inserts at an air-liquid interface, which results in differentiation of the cells to a highly polarized morphology. The apical surface is ciliated with a microvillous ultrastructure and the epithelium produces mucus (the presence of mucin has been confirmed by immunoblotting). The inserts have a diameter of 0.875 cm, providing a surface area of 0.6 cm^2. The cells are plated onto the inserts at the factory approximately three weeks before shipping. One “kit” consists of 24 units.
# A. A “kit” of 24 EpiAirway™ units can routinely be employed for evaluating five different formulations, each of which is applied to quadruplicate wells. Each well is employed for determination of permeation kinetics (4 time points), transepithelial electrical resistance (TER). An additional set of wells is employed as controls, which are sham treated during determination of permeation kinetics, but are otherwise handled identically to the test sample-containing units for determinations of transepithelial resistance and viability.
# B. In all experiments, the mucosal delivery formulation to be studied is applied to the apical surface of each unit in a volume of 100 μL, which is sufficient to cover the entire apical surface. An appropriate volume of the test formulation at the concentration applied to the apical surface (no more than 100 μL is generally needed) is set aside for subsequent determination of concentration of the active material by ELISA or other designated assay.
# D. In order to minimize potential sources of error and avoid any formation of concentration gradients, the units are transferred from one 0.9 mL-containing well to another at each time point in the study. These transfers are made at the following time points, based on a zero time at which the 100 μL volume of test material was applied to the apical surface: 15 minutes, 30 minutes, 60 minutes, and 120 minutes.
# F. At the completion of each time point, the medium is removed from the well from which each unit was transferred, and aliquotted into two tubes (one tube receives 700 μL and the other 200 μL) for determination of the concentration of permeated test material and, in the event that the test material is cytotoxic, for release of the cytosolic enzyme, lactate dehydrogenase, from the epithelium. These samples are kept in the refrigerator if the assays are to be conducted within 24 hours, or the samples are subaliquotted and kept frozen at −80° C. until thawed once for assays. Repeated freeze-thaw cycles are to be avoided.
# EIA kit (p/n S-1178(EIAH6101) was purchased from Peninsula Laboratories Inc. (Division of BACHEM, San Carlos, Calif., 800-922-1516). 17×120 mm polypropylene conical tubes (p/n 352097, Falcon, Franklin Lakes, N.J.) were used for all sample preparations. Eight standards were used for PTH quantitation. The rest of the assay procedure was the same as the kit inserts.
# The instant study was designed to evaluate the effect of PN159 itself or in combination with additional permeation enhancers on PTH permeation. The PN159 concentrations evaluated are 25, 50, and 100 μM. The additional permeation enhancers are 45 mg/ml M-β-CD, 1 mg/ml DDPC, and 1 mg/ml EDTA. Sorbitol was used as a tonicifier (146-190 mM) to adjust the osmolarity of formulations to 220 mOsm/kg. The formulation pH was fixed at 4.5. PTH was chosen as a model peptide in this example. 2 mg/ml PTH was combined with PN159 with or without additional permeation enhancers. The combination was tested using an in vitro epithelial tissue model to monitor PTH permeation, transepithelial electrical resistance (TER), and the cytotoxicity of the formulation by LDH assay.
# The effect of PN159 on permeation of MC-4RA was evaluated in this study.
substance,measurement,setting,value
H-KLALKLALKLNLKAALKLA-NH2 [PN448],Relative TER Decrease,[1],0.4
NH2-KALAALLKKAAKLLAALK-amide (H-KALAALLKKAAKLLAALK-NH2) [PN442],TER(x)/TER(159) +/− SEM*,"[1]; Table 9, hydrophobic faces",0.93 +/− 0.03
same,Perm(x)/Perm(159) +/− SEM*,"[2]; Table 9, hydrophobic faces",0.81 +/− 0.03
NH2-KALAALLKKLAKLLAALK-amide (H-KALAALLKKLAKLLAALK-NH2) [PN444],TER(x)/TER(159) +/− SEM*,"[1]; Table 9, hydrophobic faces",0.82 +/− 0.05
same,Perm(x)/Perm(159) +/− SEM*,"[2]; Table 9, hydrophobic faces",0.41 +/− 0.08
NH2-KALKLKAALALLAKLKLA-amide (H-KALKLKAALALLAKLKLA-NH2) [PN424],TER(x)/TER(159) +/− SEM*,"[1]; Table 9, hydrophobic faces",0.59 +/− 0.07
same,Perm(x)/Perm(159) +/− SEM*,"[2]; Table 9, hydrophobic faces",0.20 +/− 0.04
NH2-KLAAALLKKAKKLAAALL-amide (H-KLAAALLKKAKKLAAALL-NH2) [PN441],TER(x)/TER(159) +/− SEM*,"[1]; Table 9, hydrophobic faces",0.54 +/− 0.04
same,Perm(x)/Perm(159) +/− SEM*,"[2]; Table 9, hydrophobic faces",0.35 +/− 0.04
NH2-KLALKLALKALKAA-amide (H-KLALKLALKALKAA-NH2) [PN417],Perm(x)/Perm(159) +/− SEM*,"[2]; Example 7, length changes",0.04
NH2-KLALKLALKALKAALK-amide (H-KLALKLALKALKAALK-NH2) [PN418],TER(x)/TER(159) +/− SEM*,"[1]; Example 7, length changes",1.05 +/− 0.05
same,Perm(x)/Perm(159) +/− SEM*,"[2]; Example 7, length changes",0.64
NH2-KLALKLALKALKAALKLALK-amide (H-KLALKLALKALKAALKLALK-NH2) [PN419],TER(x)/TER(159) +/− SEM*,"[1]; Example 7, length changes",1.23 +/− 0.01
same,Perm(x)/Perm(159) +/− SEM*,"[2]; Example 7, length changes",0.74
NH2-KLALKLALKALKAALKLALKLA-amide (H-KLALKLALKALKAALKLALKLA-NH2) [PN420],TER(x)/TER(159) +/− SEM*,"[1]; Example 7, length changes",0.77 +/− 0.05
same,Perm(x)/Perm(159) +/− SEM*,"[2]; Example 7, length changes",0.24
NH2-KLALKLALKALKAALKLALKLALK-amide (H-KLALKLALKALKAALKLALKLALK-NH2) [PN421],TER(x)/TER(159) +/− SEM*,"[1]; Example 7, length changes",0.74 +/− 0.11
same,Perm(x)/Perm(159) +/− SEM*,"[2]; Example 7, length changes",0.17
NH2-KLALKLALKALKAALKLALKLALKAL-amide (H-KLALKLALKALKAALKLALKLALKAL-NH2) [PN422],TER(x)/TER(159) +/− SEM*,"[1]; Example 7, length changes",0.47 +/− 0.07
same,Perm(x)/Perm(159) +/− SEM*,"[2]; Example 7, length changes",0.07
"NH2-KLAWKLALKALKAALKLA-amide (H-KLAWKLALKALKAALKLA-NH2) [PN0425, Single Tryptophan]",Relative TER Decrease,[1],1.0
"NH2-KLAWKLALKALKAAWKLA-amide (H-KLAWKLALKALKAAWKLA-NH2) [PN0427, Two Tryptophan]",Relative TER Decrease,[1],1.0
"NH2-KLAWKLAWKALKAAWKLA-amide (KLAWKLAWKALKAAWKLA-NH2) [PN028, Three Tryptophan]",Relative TER Decrease,[1],0.7
NH2-KLaLKlALkAlkAALkLA-amide (H-KL[dA]LK[dL]AL[dK]A[dL][dK]AAL[dK]LA-NH2) [PN434],TER reduction (in words),[1]; PN159 analogues compared with PN159,null activities
same,TER(x)/TER(159) +/− SEM,[1],0.12 +/− 0.01
same,permeability enhancement (in words),[2],null activities
same,Perm(x)/Perm(159) +/− SEM,[2],0.02 +/− 0.00
"NH2-LKLLKKLLKKLLKLL-amide (H-LKLLKKLLKKLLKLL-NH2) [PN406, Leucine and Lysine rich]",Relative TER Decrease,[1],0.9
"NH2-LKTLATALTKLAKTLTTL-amide (H-LKTLATALTKLAKTLTTL-NH2) [PN443, Threonine]",Relative TER Decrease,[1],0.3
NH2-LKlLKkLlkKLLkLL-amide (H-LK[dL]LK[dK]L[dL][dK]KLL[dK]LL-NH2) [PN407],TER(x)/TER(159) +/− SEM,[1],1.08 +/− 0.01
same,Relative TER Decrease,[1],1.1
same,permeability enhancement (in words),[2],minor but statistically significant improvement on permeability
same,Perm(x)/Perm(159) +/− SEM,[2],1.20 +/− 0.05
"NH2-RLALRLALRALRAALRLA-amide (H-RLALRLALRALRAALRLA-NH2) [PN394, Argenine]",Relative TER Decrease,[1],0.7
"NH2-RLAWRLALRALRAALRLA-amide (H-RLAWRLALRALRAALRLA-NH2) [PN395, Argenine and Single Tryptophan]",Relative TER Decrease,[1],0.8
NH2-alklaaklaklalklalk-amide (ALKLAAKLAKLALKLALK; all D-amino acids; C-terminal amide) [PN408],TER(x)/TER(159) +/− SEM,[1],1.05 +/− 0.01
same,Perm(x)/Perm(159) +/− SEM,[2],1.16 +/− 0.07
NH2-klalklalkalkaalkla-amide (H-[dK][dL][dA][dL][dK][dL][dA][dL][dK][dA][dL][dK][dA][dA][dL][dK][dL][dA]-NH2; SMILES CC(C)C[C@@H](NC(=O)[C@H](N)CCCCN)C(=O)N[C@H](C)C(=O)N[C@H](CC(C)C)C(=O)N[C@H](CCCCN)C(=O)N[C@H](CC(C)C)C(=O)N[C@H](C)C(=O)N[C@H](CC(C)C)C(=O)N[C@H](CCCCN)C(=O)N[C@H](C)C(=O)N[C@H](CC(C)C)C(=O)N[C@H](CCCCN)C(=O)N[C@H](C)C(=O)N[C@H](C)C(=O)N[C@H](CC(C)C)C(=O)N[C@H](CCCCN)C(=O)N[C@H](CC(C)C)C(=O)N[C@H](C)C(N)=O) [PN393],TER(x)/TER(159) +/− SEM,[1],1.06 +/− 0.00
same,Perm(x)/Perm(159) +/− SEM,[2],1.02 +/− 0.16
